Literature values as cited in patent US20010014678A1, “Nicotine addiction treatment” (CARY MEDICAL CORPORATION, priority 1997, published 2001).

**Q.** With `CN1CCCC1c1cccnc1` (centres unmarked) [nicotine] as the compound, how does the metabolic half-life (in vivo) read?
**A.** roughly 2 hours

**Q.** What about the “nicotine in venous blood” value (provided by one cigarette) of the same compound?
**A.** 5 to 30 ng/mL
